Reference: patent publication US11414426B2, “Treatment of skin disorders” (PIQUR THERAPEUTICS AG, priority 2017, dated 2022)
Marks after values point to notes of the source that are not given here.

What was measured:
pPKB S473 in A2058 cells = experiment: In-cell Western blot, pPKB S473; assay type: cell-based; conditions: Homo sapiens, A2058, 1 h, 1 hour treatment, normalized to α-tubulin
Description: (§1) Cells are fixed with 4% paraformaldehyde for 30 minutes at room temperature, washed 2 times with 1% BSA in PBS, permeabilized with 0.1% Triton X-100 in PBS/1% BSA for 30 minutes at room temperature and blocked with 5% goat serum in PBS/1% BSA/0.1% Triton X-100 for 30 minutes at room temperature. […] Cells are washed 3 times 5 minutes with PBS/1% BSA/0.1% triton and plate scanned with the Odyssey Infrared Scanning system using both 700 and 800 nm channels. […] To correct for background staining in the data analysis wells are treated only with secondary antibodies.
(§2) For data analysis the mean background signal from channel 700 nm and 800 nm are subtracted from each signal in channel 700 nm and 800 nm, respectively.
(§3) IC50 values of each compound are determined by plotting the normalized pPBK S473 and pS6 S235/S236 signals, respectively, versus the compound concentrations (in logarithmic scale) and then by fitting a sigmoidal dose-response curve with variable slope to the data using GraphPad™ Prism.

[1] = test system: pS6 S235/S236 in A2058 cells; experiment: In-cell Western blot, pS6 S235/S236; assay type: cell-based; conditions: 1 hour treatment, normalized to α-tubulin
Description: as §1, §2, §3

[2] = Stress stability in propyleneglycol at 60° C. (HPLC); assay type: physicochemical; conditions: 1% in propyleneglycol, 72 h
Description: The fraction of residual test item was determined by HPLC. […] During the observation period of 72 hrs.
Equal concentrations (1%) of the test items in propyleneglycol were heated to 60° C. and the fraction of residual test item was determined by HPLC.

[3] = biological target: T1, N-terminally GST-tagged mTOR (truncated version: amino acids 1360-2549) (Homo sapiens, UniProt P42345); experiment: In vitro mTOR binding assay (LanthaScreen TR-FRET); conditions: 10 nM Tracer 314, 30 min RT
T1 construct: truncated version: amino acids 1360-2549; purchased Life Technologies PR8683B
Description: In Vitro mTOR Binding Assay
A 10-point 4-fold serial dilution (highest concentration at 10 μmol/L and lowest concentration at 40 pmol/L) of each compound was tested for mTOR binding in duplicate in a 384-well plate. […] After 30 min incubation at RT, time-resolved FRET was measured with a Synergy 4 multi-mode microplate reader (Biotek Instruments) using the following settings: 100 microsecs delay before data collection, 200 microsecs time for data collection, 10 measurements per data point.
IC50 values of each compound were determined by plotting the emission ratio versus the compound concentrations (in logarithmic scale) and then by fitting a sigmoidal dose-response curve with variable slope to the data using GraphPad™ Prism.

[4] = Ex vivo pig skin penetration, formulations in 80% SBECD; assay type: in vitro ADME
Description: The control formulation Aldara (5% imiquimod) was applied to detect variations in skin permeability (local variability in the same animal and inter-subject variability). The stratum corneum was removed by tape stripping to avoid contamination during the biopsy extraction. […] One biopsy was taken from each control site. Additionally, 5 blank samples were taken.

[5] = In vivo pig skin penetration; conditions: living pig, single topical application, propylene glycol preparations
[6] = Ex vivo pig skin PK profile, propylene glycol formulations; assay type: in vitro ADME
Description: Excised pig skin was placed in a climate chamber to control temperature and humidity. […] Before biopsies were taken the stratum corneum was removed by tape stripping and biopsies consisted of the remaining epidermis and entire dermis.

T1 sequence (P42345 1360-2549): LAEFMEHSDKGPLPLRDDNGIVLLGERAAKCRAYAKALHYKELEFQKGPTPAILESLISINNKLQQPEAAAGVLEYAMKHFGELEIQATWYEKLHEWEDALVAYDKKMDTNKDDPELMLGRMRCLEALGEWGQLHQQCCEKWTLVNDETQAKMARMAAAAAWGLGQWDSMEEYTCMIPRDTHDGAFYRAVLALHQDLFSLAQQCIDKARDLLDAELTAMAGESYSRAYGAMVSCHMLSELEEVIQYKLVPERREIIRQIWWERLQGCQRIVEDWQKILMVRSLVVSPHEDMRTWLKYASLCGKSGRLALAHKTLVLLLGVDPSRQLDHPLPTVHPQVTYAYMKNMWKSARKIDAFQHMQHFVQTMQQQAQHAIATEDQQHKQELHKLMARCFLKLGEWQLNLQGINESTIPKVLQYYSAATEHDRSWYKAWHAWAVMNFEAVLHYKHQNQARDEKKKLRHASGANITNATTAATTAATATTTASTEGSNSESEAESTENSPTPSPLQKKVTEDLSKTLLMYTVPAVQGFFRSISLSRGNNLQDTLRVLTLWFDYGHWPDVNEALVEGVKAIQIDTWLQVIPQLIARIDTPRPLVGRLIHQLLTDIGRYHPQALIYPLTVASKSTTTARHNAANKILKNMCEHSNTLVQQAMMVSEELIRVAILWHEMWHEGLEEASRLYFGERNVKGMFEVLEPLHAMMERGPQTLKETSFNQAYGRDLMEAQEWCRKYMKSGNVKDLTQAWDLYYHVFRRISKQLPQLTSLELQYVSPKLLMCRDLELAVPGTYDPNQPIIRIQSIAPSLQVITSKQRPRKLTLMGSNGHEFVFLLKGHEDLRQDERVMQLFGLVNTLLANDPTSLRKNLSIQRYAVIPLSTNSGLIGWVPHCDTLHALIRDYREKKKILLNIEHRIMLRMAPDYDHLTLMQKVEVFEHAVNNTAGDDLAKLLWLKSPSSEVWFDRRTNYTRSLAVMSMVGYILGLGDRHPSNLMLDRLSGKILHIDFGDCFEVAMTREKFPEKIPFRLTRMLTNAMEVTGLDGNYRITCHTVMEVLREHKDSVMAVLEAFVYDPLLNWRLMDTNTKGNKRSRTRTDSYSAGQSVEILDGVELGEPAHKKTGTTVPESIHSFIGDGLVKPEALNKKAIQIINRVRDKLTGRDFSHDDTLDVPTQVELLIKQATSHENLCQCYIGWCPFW

Nc1cc(C(F)(F)F)c(-c2cc(N3CCOCC3)nc(N3CCOCC3)n2)cn1 [BKM 120]
IC50 (pPKB S473 in A2058 cells): 0.39 µM | IC50 [1]: 0.64 µM

CO[C@H]1C[C@@H]2CC[C@@H](C)[C@@](O)(O2)C(=O)C(=O)N2CCCC[C@H]2C(=O)O[C@H]([C@H](C)C[C@@H]2CC[C@@H](O)[C@H](OC)C2)CC(=O)[C@H](C)/C=C(\C)[C@@H](O)[C@@H](OC)C(=O)[C@H](C)C[C@H](C)/C=C/C=C/C=C/1C [Sirolimus]
degraded (fraction of test item lost, HPLC) [2]: 39%

C[C@H]1COCCN1c1nc(-c2cnc(N)cc2C(F)F)nc(N2CCOC[C@@H]2C)n1 [Compound 6]
IC50 [3]: 0.023 µM

Nc1cc(C(F)F)c(-c2nc(N3C4CCC3COC4)nc(N3C4CCC3COC4)n2)cn1 [Compound 3, 5-(4-(3-oxa-8-azabicyclo[3.2.1]octan-8-yl)-6-(3-oxa-8-azabicyclo[3.2.1]octan-8-yl)-1,3,5-triazin-2-yl)-4-(difluoromethyl)pyridin-2-amine]
intrinsic penetration properties in comparison with Aldara (5% imiquimod) ([4]; ex vivo pig skin): slightly lower | penetration into pig skin (lower epidermis and dermis) ([4]; ex vivo, 1% experimental formulations, 80% SBECD): penetrated into pig skin (lower epidermis and dermis) to a significant extent | levels in epidermis and dermis after tape stripping [5]: significant levels | skin concentration / skin PK profile ([6]; 1% in 100% PG): comparable to 1* | drug concentrations in the lower epidermis and dermis ([6]; 1% preparations containing propylene glycol, vs Aldara): high drug concentrations in the lower epidermis and dermis
